From US10159687B2, “Prodrugs of vitamin K” (KAPPA BIOSCIENCE AS, priority 2012, dated 2018)

Columns and labels:
[1] = Light stability in MCT oil (HPLC % area); assay type: physicochemical; conditions: for MK7 content in the sample after 1 h / Purity after 1 h (%): light exposure 1 h; for MK7 content in the sample after 1 d / Purity after 1 d (%): light exposure 1 d; for Purity after 3 d (%) / MK7 content in the sample after 3 d: light exposure 3 d; for MK7 content in the sample after 3 d: in %
Description: The light stability of MK-7 was compared certain example compounds as hereinbefore described. Compounds were dissolved separately in ethyl acetate or MCT oil, transferred to glass vial (clear glass) and placed on the bench in a well lit laboratory (ordinary room lighting). […]
(§1) The samples were analyzed by HPLC using aHPLC_KB_001, with the HPLC conditions detailed below.
(§2) HPLC-DAD high pressure system: Agilent, LC system 1100 series
(§3) Analytical column: Supelcosil C-18, 4.6×250 mm, 5 µm
(§4) Column temperature: 40° C.
(§5) Eluent system: 50% Solvent C: MeOH/Water with 0.1% v/v acetic acid (95/5 v/v) 50% Solvent D: Isopropanol
(§6) The content of MK-7 and the MK-7 derivative in the samples have been quantified as % area of the total peak area in the chromatogram.

[2] = Light stability in ethyl acetate (HPLC % area); assay type: physicochemical; conditions: for After 19 hrs % (content as % area of the total peak area) / MK-7 content in the sample after 19 hrs / Initial % (content as % area of the total peak area): in ethyl acetate; for After 19 hrs % (content as % area of the total peak area): after 19 hrs of light exposure (ordinary room lighting); for MK-7 content in the sample after 19 hrs: after 19 hrs of light exposure, MK-7 formed from the derivative; for Initial % (content as % area of the total peak area): clear glass vial, initial time point; for light stability compared with the diacetylated compound: light exposure, comparison in words
Description: The light stability of MK-7 was compared certain example compounds as hereinbefore described. Compounds were dissolved separately in ethyl acetate or MCT oil, transferred to glass vial (clear glass) and placed on the bench in a well lit laboratory (ordinary room lighting). The samples were analyzed after 19 hours of light exposure or more.
as §1, §2, §3, §4, §5, §6

[3] = Rat study: MK-7 in plasma after oral gavage in sunflower oil; assay type: in vivo, male Sprague Dawley Rats; conditions: rats
Description: Brief Procedure: Rats: Male Rats aged 6 to 8 weeks and weighing around 180 to 225 g. Animals were fasted overnight with free access to water. Animals were administered test substance by oral gavage with a dose of 100 μg/kg body weight (in recommended formulation and dose volume). Blood samples (150-200 μl) were collected at various time points during the next 48 hours post dose. To determine the bioavailability of different formulations containing MK-7 in male e Sprague Dawley Rats through gavage. Formulations were both dissolved in sunflower oil. Approximately 0.4 ml/animal (depending on the weight of the animal) via oral gavage (100 μg/kg body weight). There were 6 animals per formulation. Blood samples were collected from the tail vein of each animal and transferred into lithium heparin tubes at 2 and 12 hours post dose. Quantification of analyte in plasma was determined by LC-MS-MS analysis: Analyte: MK-7 in plasma. The data are mean of four measurements (low and high values are not included).

Row | SMILES | MK7 content in the sample after 1 h [1] | Purity after 1 h (%) [1] | MK7 content in the sample after 1 d [1] | Purity after 1 d (%) [1] | Purity after 3 d (%) [1] | MK7 content in the sample after 3 d [1] | Start purity from CoA (%) ([1]; start) | After 19 hrs % (content as % area of the total peak area) [2] | MK-7 content in the sample after 19 hrs [2] | Initial % (content as % area of the total peak area) [2] | light stability compared with the diacetylated compound [2] | serum level 12 hours after administration compared with MK-7 (in words) [3] | MK7 content in the sample at start ([1]; start) | degradation after light exposure ([1]; after 24 hours of light exposure) | degradation after light exposure ([2]; in solution, after 19 hours of light exposure (below Table 1, ethyl acetate))
1 | CC(C)=CCC/C(C)=C/CC/C(C)=C/CC/C(C)=C/CC/C(C)=C/CC/C(C)=C/CC/C(C)=C/Cc1c(C)c(OC(=O)c2ccccc2)c2ccccc2c1O [Example 2B, 3-((2E,6E,10E,14E,18E,22E)-3,7,11,15,19,23,27-heptamethyloctacosa-2,6,10,14,18,22,26-heptaen-1-yl)-4-hydroxy-2-methylnaphthalen-1-yl benzoate] | 2.7% | 91.9% | 4.1% | 84.6% | 63.8% | 5.6 | 91.5% | 87.6% | 2.8% | 91.5% |  |  |  |  | 
2 | CCC(=O)Oc1c(C)c(C/C=C(\C)CC/C=C(\C)CC/C=C(\C)CC/C=C(\C)CC/C=C(\C)CC/C=C(\C)CCC=C(C)C)c(OC(=O)CC)c2ccccc12 [Example 7, 2-((2E,6E,10E,14E,18E,22E)-3,7,11,15,19,23,27-heptamethyloctacosa-2,6,10,14,18,22,26-heptaen-1-yl)-3-methylnaphthalene-1,4-diyl dipropionate] |  | 98.0% |  | 96.7% | 93.8% |  | 98.5% | 97.7% |  | 98.5% | more stable than the diacetylated compound | the same |  |  | 
3 | CC(C)=CCC/C(C)=C/CC/C(C)=C/CC/C(C)=C/CC/C(C)=C/CC/C(C)=C/CC/C(C)=C/Cc1c(C)c(O)c2ccccc2c1OC(=O)c1ccccc1 [Example 2A, 2-((2E,6E,10E,14E,18E,22E)-3,7,11,15,19,23,27-heptamethyloctacosa-2,6,10,14,18,22,26-heptaen-1-yl)-4-hydroxy-3-methylnaphthalen-1-yl benzoate] | 13.1% | 83.9% | 18.0% | 72.5% | 53.3% | 23.65 | 93.3% | 71.2% | 23.4% | 93.3% |  |  | 4% |  | 
4 | CCOP(=O)(OCC)Oc1c(C)c(C/C=C(\C)CC/C=C(\C)CC/C=C(\C)CC/C=C(\C)CC/C=C(\C)CC/C=C(\C)CCC=C(C)C)c(OC(=O)CC)c2ccccc12 [Example 9, 4-((diethoxyphosphoryl)oxy)-2-((2E,6E,10E,14E,18E,22E)-3,7,11,15,19,23,27-heptamethyloctacosa-2,6,10,14,18,22,26-heptaen-1-yl)-3-methylnaphthalen-1-yl propionate] |  | 90.1% |  | 89.0% | 84.2% |  | 90.7% |  |  |  |  |  |  |  | 
5 | CCC(=O)Oc1c(C/C=C(\C)CC/C=C(\C)CC/C=C(\C)CC/C=C(\C)CC/C=C(\C)CC/C=C(\C)CCC=C(C)C)c(C)c(OC(=O)CCNC(=O)OC(C)(C)C)c2ccccc12 [Example 12, 3-((2E,6E,10E,14E,18E,22E)-3,7,11,15,19,23,27-heptamethyloctacosa-2,6,10,14,18,22,26-heptaen-1-yl)-2-methyl-4-(propionyloxy)naphthalen-1-yl 3-((tert-butoxycarbonyl)amino)propanoate] |  | 91.9% |  | 89.4% | 84.4% |  | 92% |  |  |  |  |  |  |  | 
6 | CC(C)=CCC/C(C)=C/CC/C(C)=C/CC/C(C)=C/CC/C(C)=C/CC/C(C)=C/CC/C(C)=C/Cc1c(C)c(OC(=O)c2ccc(C(F)(F)F)cc2)c2ccccc2c1OC(=O)c1ccc(C(F)(F)F)cc1 [Example 13, 2-((2E,6E,10E,14E,18E,22E)-3,7,11,15,19,23,27-heptamethyloctacosa-2,6,10,14,18,22,26-heptaen-1-yl)-3-methylnaphthalene-1,4-diyl bis(4-(trifluoromethyl)benzoate)] |  | 83.6% |  | 84.8% | 79.6% |  | 90.2% |  |  |  |  |  |  |  | 
7 | CC(C)=CCC/C(C)=C/CC/C(C)=C/CC/C(C)=C/CC/C(C)=C/CC/C(C)=C/CC/C(C)=C/Cc1c(C)c(OC(=O)c2ccccc2)c2ccccc2c1OC(=O)c1ccccc1 [Example 1, 2-((2E,6E,10E,14E,18E,22E)-3,7,11,15,19,23,27-heptamethyl-octacosa-2,6,10,14,18,22,26-heptaen-1-yl)-3-methylnaphthalene-1,4-diyl dibenzoate] |  | 98.3% |  | 97.3% | 92.9% |  | 98.5% | 95.4% |  | 98.5% | more stable than the diacetylated compound |  |  |  | 
8 | CC(C)=CCC/C(C)=C/CC/C(C)=C/CC/C(C)=C/CC/C(C)=C/CC/C(C)=C/CC/C(C)=C/CC1=C(C)C(=O)c2ccccc2C1=O [MK-7, 2-((2E,6E,10E,14E,18E,22E)-3,7,11,15,19,23,27-heptamethyloctacosa-2,6,10,14,18,22,26-heptaen-1-yl)-3-methylnaphthalene-1,4-dione, reference compound] |  | 97.2% |  | 73.5% | 32.2% |  | 99% | 53.7% |  | 99.4% |  |  |  | approximately 70% | approximately 50%
9 | CCC(=O)Oc1c(C/C=C(\C)CC/C=C(\C)CC/C=C(\C)CC/C=C(\C)CC/C=C(\C)CC/C=C(\C)CCC=C(C)C)c(C)c(OC(=O)[C@@H](NC(=O)OC(C)(C)C)C(C)C)c2ccccc12 [Example 10, 3-((2E,6E,10E,14E,18E,22E)-3,7,11,15,19,23,27-heptamethyloctacosa-2,6,10,14,18,22,26-heptaen-1-yl)-2-methyl-4-(propionyloxy)naphthalen-1-yl (tert-butoxycarbonyl)-L-valinate] |  | 92.7% |  | 92.0% | 89.0% |  | 93.5% |  |  |  |  |  |  |  | 
10 | CCOP(=O)(OC/C=C(\C)CC/C=C(\C)CC/C=C(\C)CC/C=C(\C)CC/C=C(\C)CC/C=C(\C)CCC=C(C)C)Oc1c(CC)c(C)c(OC(=O)c2ccccc2)c2ccccc12 (stereo not shown) [Example 4, 4-((ethoxy(((2E,6E,10E,14E,18E,22E)-3,7,11,15,19,23,27-heptamethyl-octacosa-2,6,10,14,18,22,26-heptaen-1-yl)oxy)phosphoryl)oxy)-3-ethyl-2-methylnaphthalen-1-yl benzoate] |  | 86.4% |  | 84.4% | 81.5% |  | 86.7% |  |  |  |  |  |  |  | 
